According to patent US10844051B2, “Substituted oxazoles for the treatment of cancer” (THE ROYAL INSTITUTION FOR THE ADCANCEMENT OF …, priority 2015, dated 2020):
pIC50: −log10 of the molar value. “Also recorded” adds a separate entry of the source.

Legend:
[1] = tested on: androgen receptor (AR) signaling in C4-2B prostate cancer cells; assay: Western blot, AR signaling in C4-2B cells; format: cell-based
[2] = tested on: H23 KRAS-mutant NSCLC cells; assay: MTT assay, H23; format: cell-based; details: KRAS-mutant NSCLC, 72 hours
Experimental: (§1) FIG. 2.7 Compound 673 is cytotoxic in KRAS-mutant NSCLC cells (A549 and H23), but is not toxic the KRAS wild-type NSCLC cells (H322). Cells were exposed to vehicle or compounds (μM) for 72 hours. Viable cells were evaluated by MTT assays.
Panc 10.05, H23 and HCT-116 cells express endogenous KRAS 12D, 12C and 13D mutants, respectively. Cells were exposed to DMSO vehicle or compounds at designated doses for 72 hours. Experiments were done in triplicate.

LNCaP-GATA2 cells = assay: BrdU cell proliferation assay in LNCaP-GATA2 cells, combination with bicalutamide; format: cell-based; details: equi-molar combination, 48 hours
Experimental: (§2) (A) PSA-luc reporter assay in LNCaP-GATA2 cells, which were exposed to DMSO vehicle, BIC, 673, or equi-molar combination of Bic and 673 for 72 hours in FBS medium. RLU, relative luciferase unit; (B) BrdU Cell Proliferation Assay (Assay Kit #6813, Cell Signaling Tech.). LNCaP-GATA2 cells were exposed to DMSO vehicle, Bic, 673 or equi-molar combination of Bic and 673 for 48 hours. In the last 8 hours, 10 μM BrdU was added to the plate. **p<0.001, ***p<0.001 when compared with BIC at the same doses; #p<0.05, ##p<0.001 when compared with 673 at the same doses.

human GATA3 = target: T1, human GATA3 (Homo sapiens, UniProt P23771); assay: GATA3-dependent reporter assay in IHH cells; format: cell-based; details: 48 hours
T1 construct: expressed in transfected cells; host or cells: IHH
T1 sequence (P23771 whole entry): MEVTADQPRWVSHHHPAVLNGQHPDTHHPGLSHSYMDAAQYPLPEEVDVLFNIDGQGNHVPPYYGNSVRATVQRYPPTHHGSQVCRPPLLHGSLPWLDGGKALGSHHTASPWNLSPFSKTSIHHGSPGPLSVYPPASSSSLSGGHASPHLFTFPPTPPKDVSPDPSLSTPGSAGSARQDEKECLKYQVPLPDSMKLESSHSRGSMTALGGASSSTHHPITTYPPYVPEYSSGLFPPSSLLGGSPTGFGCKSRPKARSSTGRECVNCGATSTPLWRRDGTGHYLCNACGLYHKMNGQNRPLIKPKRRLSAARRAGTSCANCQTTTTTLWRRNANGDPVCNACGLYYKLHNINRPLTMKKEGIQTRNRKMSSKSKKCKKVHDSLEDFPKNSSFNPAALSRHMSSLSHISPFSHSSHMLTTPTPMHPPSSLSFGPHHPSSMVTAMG
Experimental: The IHH cells were transiently transfected with empty vector (for the NT) or human GATA3-expressing plasmid as well as pRL-TK (internal control) and GATA-Luc reporter plasmids. Cells were exposed to DMSO vehicle or compounds for 48 hours. Experiments were done in triplicate.

[3] = tested on: H322 KRAS wild-type NSCLC cells; assay: MTT assay, H322; format: cell-based; details: 72 hours
Experimental: as §1

[4] = tested on: PSA-luc reporter in LNCaP-GATA2 cells; assay: PSA-luc reporter assay in LNCaP-GATA2 cells, combination with bicalutamide; format: cell-based; details: equi-molar combination, 72 hours, FBS medium
Experimental: as §2

ERG = target: T2, ERG (Homo sapiens, UniProt P11308); assay: ERG-dependent reporter assay in HEK293 cells; format: cell-based; parameters: expressed in transfected cells; host or cells: HEK293; details: PUx3-Luc reporter, 48 hours, designated doses
T2 sequence (P11308 1-486 isoform P11308-3): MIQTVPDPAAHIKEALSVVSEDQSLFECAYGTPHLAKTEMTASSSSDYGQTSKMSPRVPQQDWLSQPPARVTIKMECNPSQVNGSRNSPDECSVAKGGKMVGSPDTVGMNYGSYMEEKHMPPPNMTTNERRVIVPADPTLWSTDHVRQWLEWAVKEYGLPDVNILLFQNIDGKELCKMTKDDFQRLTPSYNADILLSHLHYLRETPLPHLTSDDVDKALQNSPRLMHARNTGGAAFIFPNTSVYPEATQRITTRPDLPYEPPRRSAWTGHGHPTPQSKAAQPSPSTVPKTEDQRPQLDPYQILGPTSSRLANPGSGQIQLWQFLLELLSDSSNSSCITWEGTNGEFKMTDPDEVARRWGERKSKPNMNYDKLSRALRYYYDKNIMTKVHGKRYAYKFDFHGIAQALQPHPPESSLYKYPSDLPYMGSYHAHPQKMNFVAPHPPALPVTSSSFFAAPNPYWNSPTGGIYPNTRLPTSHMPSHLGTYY
Experimental: HEK293 cells were transiently transfected with empty vector (for the NT) or ERG-expressing plasmid as well as pRL-TK (internal control) and PUx3-Luc reporter. Cells were then exposed to DMSO vehicle or compounds at designated doses for 48 hours. Experiments were done in triplicate.

[5] = target: T3, recombinant protein of human GATA2 (Homo sapiens, UniProt P23769); assay: SPR analysis on amine-coupled GATA2; format: binding
T3 sequence (P23769 1-480): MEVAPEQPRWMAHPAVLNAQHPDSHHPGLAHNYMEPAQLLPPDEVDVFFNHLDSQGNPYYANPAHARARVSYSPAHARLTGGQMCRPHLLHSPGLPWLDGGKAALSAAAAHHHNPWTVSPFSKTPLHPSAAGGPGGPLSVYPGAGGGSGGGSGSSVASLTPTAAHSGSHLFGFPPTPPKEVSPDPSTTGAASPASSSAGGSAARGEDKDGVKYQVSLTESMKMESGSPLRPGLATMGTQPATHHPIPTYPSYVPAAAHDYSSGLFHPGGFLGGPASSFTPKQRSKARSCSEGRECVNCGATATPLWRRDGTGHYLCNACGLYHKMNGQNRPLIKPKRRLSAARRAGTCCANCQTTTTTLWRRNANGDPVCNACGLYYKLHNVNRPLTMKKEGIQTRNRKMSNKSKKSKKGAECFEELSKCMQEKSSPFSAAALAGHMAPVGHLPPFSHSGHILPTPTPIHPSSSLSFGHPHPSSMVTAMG
From the text: In embodiments of the invention, the androgen-bound AR is regressing GATA2 expression and inhibition of AR via castration or use of antiandrogen releases such expression. […] Overexpression of GATA2 confers resistance to antiandrogen bicalutamide (Bic) (FIG. 2.9). Compound 673 is effective against the LNCaP stably transfected with GATA2-expressing plasmid (referred to as LNCaP-GATA2 cells) (FIG. 2.8).

[6] = tested on: GATA2 expression in C4-2B cells; assay: Western blot, GATA2 expression in C4-2B cells; format: cell-based
[7] = tested on: fusion protein IRF3DBD-GATA2NTD; assay: ISRE-luc reporter assay in PC3 cells, IRF3DBD-GATA2NTD; format: cell-based; details: 5 μM
wild-type IRF3 = target: T4, wild-type IRF3 (Homo sapiens, UniProt Q14653); assay: ISRE-luc reporter assay in PC3 cells, wild-type IRF3; format: cell-based; details: 5 μM
T4 construct: host or cells: PC3
T4 sequence (Q14653 whole entry, species assumed): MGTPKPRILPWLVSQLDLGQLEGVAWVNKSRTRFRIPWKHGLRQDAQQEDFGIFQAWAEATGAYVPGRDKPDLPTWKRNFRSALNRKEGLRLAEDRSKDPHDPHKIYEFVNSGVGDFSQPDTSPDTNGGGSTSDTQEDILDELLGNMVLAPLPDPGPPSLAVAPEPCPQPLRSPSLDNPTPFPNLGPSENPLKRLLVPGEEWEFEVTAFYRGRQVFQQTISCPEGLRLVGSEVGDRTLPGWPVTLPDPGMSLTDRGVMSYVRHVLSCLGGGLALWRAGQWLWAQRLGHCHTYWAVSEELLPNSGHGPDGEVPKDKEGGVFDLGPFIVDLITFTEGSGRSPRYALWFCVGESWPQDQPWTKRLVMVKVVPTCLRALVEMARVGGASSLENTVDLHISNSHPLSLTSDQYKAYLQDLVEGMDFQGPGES

[8] = tested on: GATA family members (GATA1, GATA2, GATA3, GATA4); assay: GATA1-, GATA2-, GATA3- and GATA4-dependent reporter assays in IHH cells; format: cell-based; details: CSS medium, 48 hours
Experimental: In contrast, K7174 is not selective. GATA1-, GATA2-, GATA3- and GATA4-dependent reporter assays were done in IHH cells which were exposed to DMSO vehicle, compound 673 or K7174 (μM) in CSS medium for 48 hours.

human GATA2 = target: T5, human GATA2 (Homo sapiens, UniProt P23769); assay: GATA2-dependent reporter assay in IHH cells; format: cell-based; details: GATA-Luc reporter, 48 h
T5 construct: expressed in transfected cells; host or cells: IHH
T5 sequence (P23769 1-480): T3 sequence (P23769 1-480)
Experimental: K7174 is a known GATA2 inhibitor. The IHH cells were transiently transfected with empty vector (for the NT) or human GATA2-expressing plasmid as well as pRL-TK (internal control) and GATA-Luc reporter plasmids. Cells were exposed to DMSO vehicle or compounds for 48 h. Experiments were in triplicate.

[9] = tested on: AR signaling in LNCaP-GATA2, HP-LNCaP, C4-2B and 22Rv1 cells; assay: Western blot, AR signaling in LNCaP-GATA2 and CRPC cells; format: cell-based; details: LNCaP-GATA2 in FBS medium, 22Rv1 in CSS medium, 72 hours
Experimental: FIG. 2.11 By breaking AR-GATA2 feedback loop, compound 673 suppresses the AR signaling in CRPC cells. […] Cells were exposed to DMSO vehicle, BIC, 673 or K7174 at designated doses (μM) for 72 hours.

[10] = tested on: A549 KRAS-mutant NSCLC cells; assay: MTT assay, A549; format: cell-based; details: 72 hours
Experimental: as §1

human STING (hSTING) = target: T6, human STING (hSTING) (Homo sapiens, UniProt Q86WV6); assay: hSTING ISRE-luc reporter assay in 293T cells; format: cell-based; details: 24 hours
T6 construct: expressed in transfected cells; host or cells: 293T
T6 sequence (Q86WV6 whole entry H232R): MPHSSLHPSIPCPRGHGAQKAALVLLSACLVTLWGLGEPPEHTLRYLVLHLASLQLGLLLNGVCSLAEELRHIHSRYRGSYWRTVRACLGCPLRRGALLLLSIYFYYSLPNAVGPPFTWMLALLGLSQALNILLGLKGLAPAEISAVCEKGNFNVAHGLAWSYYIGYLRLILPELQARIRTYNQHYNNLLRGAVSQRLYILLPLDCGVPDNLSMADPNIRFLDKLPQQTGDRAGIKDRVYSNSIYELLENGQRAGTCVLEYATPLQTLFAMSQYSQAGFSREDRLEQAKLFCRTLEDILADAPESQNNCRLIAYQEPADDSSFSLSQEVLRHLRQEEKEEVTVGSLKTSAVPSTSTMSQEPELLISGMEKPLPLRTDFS
Experimental: ISRE-luc (reporter), pRL-TK (internal control) and hSTING-expressing plasmids were transiently transfected into 293T cells. Cells were exposed to DMSO vehicle control or compounds for 24 hours. Experiments were done in triplicate.

GATA = details: read-out: IC50 in reporter assay; cited from earlier work

SMILES | suppression of androgen receptor (AR) signaling (Western blot) [1] | cytotoxicity in H23 cells (MTT) [2] | effect of combination with bicalutamide (BIC) in BrdU cell proliferation assay (LNCaP-GATA2 cells) | activity against GATA3 in GATA3-dependent reporter assay (human GATA3; 10 μM) | activity against GATA3 in GATA3-dependent reporter assay (human GATA3; compounds at 5 μM) | cytotoxicity in H322 cells (MTT) [3] | effect of combination with bicalutamide (BIC) in PSA-luc reporter assay [4] | ERG inhibition in ERG-dependent reporter assay (ERG) | dose-dependent binding to amine-coupled GATA2 (SPR) ([5]; 0-50 μM, 2-fold dilution series) | binding to amine-coupled GATA2 (SPR) ([5]; 50 μM each) | inhibition of GATA2 expression (Western blot) [6] | activity against fusion protein IRF3DBD-GATA2NTD (ISRE-luc) [7] | activity against wild-type IRF3 (ISRE-luc) (wild-type IRF3) | selectivity for GATA2 among GATA family members [8] | GATA2 inhibition in GATA2-dependent reporter assay (human GATA2) | suppression of AR signaling in LNCaP-GATA2 and CRPC cells (WB) [9] | cytotoxicity in A549 cells (MTT) [10] | activation of hSTING in ISRE-luc reporter assay (human STING (hSTING)) | pIC50 (GATA)
Fc1cccc(-c2nc(CCCc3c[nH]c4ccccc34)oc2-c2cccc(F)c2)c1 [Compound 673] | potently inhibits the AR signaling; also recorded: suppresses the androgen receptor (AR) signaling | cytotoxic | Synergistic effect | inactive against GATA3 | inactive against GATA3 | not toxic | Synergistic effect | ERG inhibitors | Specific and dose-dependent binding | Direct binding; also recorded: Specific binding | inhibits GATA2 expression | active | inactive | selectively inhibits GATA2 | GATA2 inhibitors | suppresses the AR signalling in CRPC cells; also recorded: effective in suppressing AR signaling | cytotoxic | activate hSTING | 
COc1cc(/C=C/CCCN2CCCN(CCC/C=C/c3cc(OC)c(OC)c(OC)c3)CC2)cc(OC)c1OC [Compound K7174, K7174, reference compound] |  |  |  |  | active against GATA3 |  |  |  |  |  |  |  |  | not selective |  |  |  |  | ~4.82
